In test [1] the target is T1, Full length WRN protein (aa 2-1432) (Homo sapiens (Human), UniProt Q14191). The test is described as follows: WRN ATPase ADP-Glo biochemical assay, Assay Format B (100 μM ATP). Particulars: 0.25 nM WRN, 100 nM C6.18 ssDNA, 60 min preincubation, read-out: ATPase ADPGlo AC50 (uM)- Assay Format B. (In general: In ADP-Glo the light output rises with the ADP produced.)
The subject of a further test is HCT116 cells. The test is described as follows: HCT116 (MSI) 7 day viability, CellTiter Glo. In kind it is cell-based. Particulars: Homo sapiens, HCT-116, 168 h, 7 days, read-out: HCT116 (MSI) Viability 7 Day Abs AC50. The essentials:
(§1)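 Seven-day viability is assessed with CellTiter Glo after compounds, diluted in ten 3-fold steps in DMSO, are exposed to HCT116 (50 cells/well) or HT29 (500 cells/well). Reported IC50 is the geometric mean of at least two independent runs.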
A general note: In ATP-based viability assays light output follows the ATP content of the culture.

The next test concerns HT29 cells. The test can be described thus: HT29 (MSS) 7 day viability, CellTiter Glo. The conditions noted are these: Homo sapiens, HT-29, 168 h, 7 days, read-out: HT29 (MSS) Viability 7 Day CTGAbs AC50. It counts as cell-based. In outline: as §1
In test [2] the target is T1, Full length WRN protein (aa 2-1432). The test is described as follows: WRN ATPase ADP-Glo biochemical assay, Assay Format A (10 μM ATP). The conditions noted are these: 0.25 nM WRN, 100 nM C6.18 ssDNA, 30 min preincubation, read-out: ATPase ADPGlo AC50 (uM)- Assay Format A. In outline:
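Sf9-expressed FLAG-AVI-TEV-tagged WRN (0.5 nM) preincubated 30 min with compound (11-point 3-fold dilution). Reaction started with 200 nM C6.18 39-mer ssDNA and 20 μM ATP (addition concentrations), run 30 min at room temperature. ADP measured by ADP-Glo luminescence; IC50 from four-parameter fit, geometric mean of ≥2 runs.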

What is called AC50 is the concentration giving half of the maximal activity seen.

T1 sequence (Q14191 2-1432): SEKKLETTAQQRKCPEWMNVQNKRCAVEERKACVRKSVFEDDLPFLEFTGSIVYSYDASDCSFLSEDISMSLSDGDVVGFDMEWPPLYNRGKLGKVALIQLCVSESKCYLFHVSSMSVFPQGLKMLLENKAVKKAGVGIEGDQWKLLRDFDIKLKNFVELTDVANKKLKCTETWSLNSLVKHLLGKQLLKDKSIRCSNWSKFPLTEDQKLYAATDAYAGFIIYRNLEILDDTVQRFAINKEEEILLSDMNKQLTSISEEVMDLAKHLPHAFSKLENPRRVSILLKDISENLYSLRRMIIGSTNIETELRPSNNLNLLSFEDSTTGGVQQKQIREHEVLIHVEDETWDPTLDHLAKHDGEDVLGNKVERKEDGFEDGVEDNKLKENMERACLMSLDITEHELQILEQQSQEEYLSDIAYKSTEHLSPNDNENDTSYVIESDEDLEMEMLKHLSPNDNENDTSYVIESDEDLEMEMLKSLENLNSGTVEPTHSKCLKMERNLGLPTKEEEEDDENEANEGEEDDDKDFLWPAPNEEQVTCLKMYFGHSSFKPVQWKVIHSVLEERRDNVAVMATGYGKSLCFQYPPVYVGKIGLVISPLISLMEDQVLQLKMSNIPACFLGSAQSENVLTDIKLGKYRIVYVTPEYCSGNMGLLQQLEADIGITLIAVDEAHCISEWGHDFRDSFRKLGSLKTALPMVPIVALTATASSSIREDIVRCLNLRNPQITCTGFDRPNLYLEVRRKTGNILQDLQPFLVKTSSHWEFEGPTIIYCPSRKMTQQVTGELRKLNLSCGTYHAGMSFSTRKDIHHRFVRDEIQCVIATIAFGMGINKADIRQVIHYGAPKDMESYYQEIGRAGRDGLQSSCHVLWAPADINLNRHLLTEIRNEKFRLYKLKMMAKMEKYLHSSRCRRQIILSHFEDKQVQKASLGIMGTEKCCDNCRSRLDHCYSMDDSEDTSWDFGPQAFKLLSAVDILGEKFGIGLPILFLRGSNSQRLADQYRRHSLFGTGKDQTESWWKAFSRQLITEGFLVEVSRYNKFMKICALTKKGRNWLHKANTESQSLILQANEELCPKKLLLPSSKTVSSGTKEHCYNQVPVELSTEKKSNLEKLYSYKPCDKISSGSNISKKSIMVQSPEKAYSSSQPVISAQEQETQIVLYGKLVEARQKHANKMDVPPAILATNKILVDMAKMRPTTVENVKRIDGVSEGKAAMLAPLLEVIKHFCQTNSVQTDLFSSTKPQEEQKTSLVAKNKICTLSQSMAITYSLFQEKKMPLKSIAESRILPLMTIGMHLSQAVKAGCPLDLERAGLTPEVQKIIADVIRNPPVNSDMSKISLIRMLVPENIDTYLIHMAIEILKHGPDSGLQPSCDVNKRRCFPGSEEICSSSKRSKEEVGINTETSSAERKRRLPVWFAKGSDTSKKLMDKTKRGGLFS

Turning to `C=CC(=O)N1CCc2nn(-c3ccc(C4CCC4(F)F)cc3O)c3c2C(C1)N(C(=O)c1ccc(Br)c2[nH]cnc12)CC3` (stereo not shown) [Compound 6, 1-(5-(7-bromo-1H-benzo[d]imidazole-4-carbonyl)-2-(4-(2,2-difluorocyclobutyl)-2-hydroxyphenyl)-2,3,4,5,5a,6,8,9-octahydro-7H-1,2,5,7-tetraazabenzo[cd]azulen-7-yl)prop-2-en-1-one], the AC50 in test [1] was 0.015 to 0.055 µM; with HCT116 cells, 1 to 100 nM; with HT29 cells, > 3000 nM; in test [2] it was 0.0015 to 0.005 µM.
Regarding `C=CC(=O)N1CCc2nc(-c3ccc(C(C)C)cc3)n3c2C(C1)N(C(=O)c1ccc(Br)c2[nH]cnc12)CC3` (stereo not shown) [Compound 38, 1-(5-(7-bromo-1H-benzo[d]imidazole-4-carbonyl)-2-(4-isopropylphenyl)-4,5,5a,6,8,9-hexahydro-1,2a,5,7-tetraazabenzo[cd]azulen-7(3H)-yl)prop-2-en-1-one], the AC50 in test [1] was 0.005 to 0.015 µM; in the test on HCT116 cells, 1 to 100 nM; with HT29 cells, > 3000 nM; in test [2] it was < 0.0015 µM.
Take `C=CC(=O)N1CCc2nn(-c3ccc(C4CC4)cc3)c3c2C(C1)N(C(=O)c1ccc(C(F)(F)F)nc1N)CC3` (stereo not shown) [Compound 67, 1-(5-(2-amino-6-(trifluoromethyl)nicotinoyl)-2-(4-cyclopropylphenyl)-2,3,4,5,5a,6,8,9-octahydro-7H-1,2,5,7-tetraazabenzo[cd]azulen-7-yl)prop-2-en-1-one]: the concentration at half-maximal activity (AC50) in test [1] was 0.005 to 0.015 µM; in the test with HCT116 cells, 1 to 100 nM; in the test on HT29 cells it was > 3000 nM; in test [2], 0.0015 to 0.005 µM.
The like results for `C=CC(=O)N1CCc2nn(-c3ccc(C4CCC4)cc3O)c3c2C(C1)N(C(=O)c1cnc(Cl)cc1N)CC3` (stereo not shown) [Compound 144, 1-(5-(4-amino-6-chloronicotinoyl)-2-(4-cyclobutyl-2-hydroxyphenyl)-2,3,4,5,5a,6,8,9-octahydro-7H-1,2,5,7-tetraazabenzo[cd]azulen-7-yl)prop-2-en-1-one] were, in that order, 0.0015 to 0.005 µM, 1 to 100 nM, > 3000 nM and < 0.0015 µM.
For the compound `C=CC(=O)N1CCc2nn(-c3ccc(C4CC4)cc3)c3c2C(C1)N(C(=O)c1cnc2c(C)nn(C)c2c1)CC3` (stereo not shown) [Compound 110, 1-(2-(4-cyclopropylphenyl)-5-(1,3-dimethyl-1H-pyrazolo[4,3-b]pyridine-6-carbonyl)-2,3,4,5,5a,6,8,9-octahydro-7H-1,2,5,7-tetraazabenzo[cd]azulen-7-yl)prop-2-en-1-one], the AC50 in test [1] was > 0.055 µM; in the test with HCT116 cells, 100 to 250 nM; in the test with HT29 cells, > 3000 nM; in test [2], 0.005 to 0.015 µM.
As for `C=CC(=O)N1CCc2nn(-c3ccc(C4CC4)cc3)c3c2C(C1)N(C(=O)c1ccc(C#N)c2[nH]cnc12)CC3` (stereo not shown) [Compound 18, 4-(7-acryloyl-2-(4-cyclopropylphenyl)-3,4,5,5a,6,7,8,9-octahydro-2H-1,2,5,7-tetraazabenzo[cd]azulene-5-carbonyl)-1H-benzo[d]imidazole-7-carbonitrile], the AC50 in test [1] was 0.015 to 0.055 µM; in the test on HCT116 cells it was 1 to 100 nM; in the test with HT29 cells, > 3000 nM; in test [2] it was 0.0015 to 0.005 µM.
For the compound `C=CC(=O)N1CCc2nn(-c3ccc(C4CCC4)cc3Cl)c3c2C(C1)N(C(=O)c1cnc(C(F)(F)F)cc1N)CC3` (stereo not shown) [Compound 241, 1-(5-(4-amino-6-(trifluoromethyl)nicotinoyl)-2-(2-chloro-4-cyclobutylphenyl)-2,3,4,5,5a,6,8,9-octahydro-7H-1,2,5,7-tetraazabenzo[cd]azulen-7-yl)prop-2-en-1-one], the AC50 in test [1] is 0.005 to 0.015 µM; in the test on HCT116 cells, 1 to 100 nM; with HT29 cells it was > 3000 nM; in test [2], < 0.0015 µM.
For the compound `C=CC(=O)N1CCc2nn(-c3ccc(C45CC(C4)C5)nc3)c3c2C(C1)N(C(=O)c1ccc(Br)c2[nH]cnc12)CC3` (stereo not shown) [Compound 29, 1-(2-(6-(bicyclo[1.1.1]pentan-1-yl)pyridin-3-yl)-5-(7-bromo-1H-benzo[d]imidazole-4-carbonyl)-2,3,4,5,5a,6,8,9-octahydro-7H-1,2,5,7-tetraazabenzo[cd]azulen-7-yl)prop-2-en-1-one], the AC50 was > 0.055 µM in test [1], 100 to 250 nM in the test on HCT116 cells, > 3000 nM with HT29 cells and 0.015 to 0.055 µM in test [2].
The like results for `C=CC(=O)N1CCc2nn(-c3ccc(C(C)C)cc3)c3c2C(C1)N(C(=O)c1ccc(Br)c(C(C)(C)O)c1)CC3` (stereo not shown) [Compound 102, 1-(5-(4-bromo-3-(2-hydroxypropan-2-yl)benzoyl)-2-(4-isopropylphenyl)-2,3,4,5,5a,6,8,9-octahydro-7H-1,2,5,7-tetraazabenzo[cd]azulen-7-yl)prop-2-en-1-one] were, in that order, > 0.055 µM, 500 to 1000 nM, > 3000 nM and 0.005 to 0.015 µM.
With `C=CC(=O)N1CC(O)c2nn(-c3ccc(C4CCC4)cc3)c3c2C(C1)N(C(=O)c1ccc(Br)c2[nH]c(C(F)F)nc12)CC3` (stereo not shown) [Compound 160, 1-(5-(7-bromo-2-(difluoromethyl)-1H-benzo[d]imidazole-4-carbonyl)-2-(4-cyclobutylphenyl)-9-hydroxy-2,3,4,5,5a,6,8,9-octahydro-7H-1,2,5,7-tetraazabenzo[cd]azulen-7-yl)prop-2-en-1-one], the AC50 was 0.0015 to 0.005 µM in test [1], 1 to 100 nM with HCT116 cells, > 3000 nM in the test with HT29 cells and < 0.0015 µM in test [2].
The like results for `C=CC(=O)N1CC(OC)c2nn(-c3ccc(C4CCC4)cc3)c3c2C(C1)N(C(=O)c1cnc(C(F)(F)F)c(O)c1)CC3` (stereo not shown) [Compound 156, 1-(2-(4-cyclobutylphenyl)-5-(5-hydroxy-6-(trifluoromethyl)nicotinoyl)-9-methoxy-2,3,4,5,5a,6,8,9-octahydro-7H-1,2,5,7-tetraazabenzo[cd]azulen-7-yl)prop-2-en-1-one] were, in that order, 0.005 to 0.015 µM, 1 to 100 nM, > 3000 nM and 0.0015 to 0.005 µM.
The like results for `C=CC(=O)N1CCc2nn(-c3ccc(C4CCC4)cc3O)c3c2C(C1)N(C(=O)c1ccc(Br)c2nc(C(F)F)[nH]c12)CC3` (stereo not shown) [Compound 90, 1-(5-(4-bromo-2-(difluoromethyl)-1H-benzo[d]imidazole-7-carbonyl)-2-(4-cyclobutyl-2-hydroxyphenyl)-2,3,4,5,5a,6,8,9-octahydro-7H-1,2,5,7-tetraazabenzo[cd]azulen-7-yl)prop-2-en-1-one] were, in that order, 0.005 to 0.015 µM, 1 to 100 nM, > 3000 nM and < 0.0015 µM.
Turning to `C=CC(=O)N1CCc2nn(-c3ccc(C4CC4)cc3O)c3c2C(C1)N(C(=O)c1ccc(Br)c2[nH]c(C(F)F)nc12)CC3` (stereo not shown) [Compound 143, 1-(5-(7-bromo-2-(difluoromethyl)-1H-benzo[d]imidazole-4-carbonyl)-2-(4-cyclopropyl-2-hydroxyphenyl)-2,3,4,5,5a,6,8,9-octahydro-7H-1,2,5,7-tetraazabenzo[cd]azulen-7-yl)prop-2-en-1-one], the half-maximal activity concentration (AC50) is 0.005 to 0.015 µM in test [1], 1 to 100 nM with HCT116 cells, > 3000 nM in the test on HT29 cells and < 0.0015 µM in test [2].
As for `C=CC(=O)N1CC(OCC2CCOCC2)c2nn(-c3ccc(C4CC4)cc3)c3c2C(C1)N(C(=O)c1cnc(C(F)(F)F)cc1N)CC3` (stereo not shown) [Compound 255, 1-(5-(4-amino-6-(trifluoromethyl)nicotinoyl)-2-(4-cyclopropylphenyl)-9-((tetrahydro-2H-pyran-4-yl)methoxy)-2,3,4,5,5a,6,8,9-octahydro-7H-1,2,5,7-tetraazabenzo[cd]azulen-7-yl)prop-2-en-1-one], the AC50 in test [1] is 0.005 to 0.015 µM; in the test on HCT116 cells, 1 to 100 nM; with HT29 cells it was > 3000 nM; in test [2], < 0.0015 µM.
Consider `C=CC(=O)N1CCc2nn(-c3ccc(C(C)C)cc3)c3c2C(C1)N(C(=O)c1ccc(Br)c2ncn(CC4CCO4)c12)CC3` (stereo not shown) [Compound 82, 1-(5-(4-bromo-1-((oxetan-2-yl)methyl)-1H-benzo[d]imidazole-7-carbonyl)-2-(4-isopropylphenyl)-2,3,4,5,5a,6,8,9-octahydro-7H-1,2,5,7-tetraazabenzo[cd]azulen-7-yl)prop-2-en-1-one], for which the AC50 was > 0.055 µM in test [1], 500 to 1000 nM in the test with HCT116 cells, > 3000 nM with HT29 cells and 0.005 to 0.015 µM in test [2].
Regarding `C=CC(=O)N1CCc2nn(-c3ccc(C4CC4)cc3)c3c2C(C1)N(C(=O)c1cnc(C(F)(F)F)c(C#N)c1)CC3` (stereo not shown) [Compound 112, 5-(7-acryloyl-2-(4-cyclopropylphenyl)-3,4,5,5a,6,7,8,9-octahydro-2H-1,2,5,7-tetraazabenzo[cd]azulene-5-carbonyl)-2-(trifluoromethyl)nicotino nitrile], the half-maximal activity concentration (AC50) in test [1] was > 0.055 µM; in the test on HCT116 cells, 100 to 250 nM; with HT29 cells it was > 3000 nM; in test [2] it was 0.005 to 0.015 µM.

Source of the values: US20250346600A1, “TRICYCLIC DERIVATIVES AND RELATED USES” (MOMA Therapeutics, Inc., priority 2023, published 2025).
